From US20260021092A1, “STRUCTURE-BASED DESIGN OF A NOVEL CLASS OF DRUGS FOR NEURODEGENERATIVE DISEASE” (The Regents of the University of California, priority 2022, published 2026)
“Also recorded” adds a separate entry of the source.

Tests used:
α-synuclein fibrils = α-synuclein fibrils (Homo sapiens, UniProt P37840); experiment: Table A function: disaggregators of amyloid fibrils (alpha-synuclein)
[1] = biological target: T1, recombinant alpha-synuclein fibrils (Homo sapiens, UniProt P37840); experiment: TEM quantification of recombinant alpha-synuclein fibrils; assay type: biochemical; details: 72 hours with compound, 10 micrographs
T1 construct: made in house; host or cells: E. coli BL21(DE3) Gold
Procedure: Both compounds were incubated with equimolar ratios of recombinant alpha-synuclein fibrils (100 μM:100 μM) for 48 hours at 37° C. in 1×PBS. After incubation, Thioflavin T (ThT), a fluorescent marker of amyloid fibrils, was added to the samples and ThT fluorescence was measured. EGCG was used as a positive control for comparison. […] Next, transmission electron microscopy (EM) was performed for each sample. […] To obtain a quantitative evaluation of fibril reduction, fibrils were first incubated for 72 hours with compound, then 10 micrographs from random grid points were taken for each sample, and the numbers of fibrils per image were counted (FIG. 5c). […] Western blot analysis, staining for alpha-synuclein, was performed for fibril samples incubated with compounds for 48 hours (FIG. 5d). For untreated alpha-synuclein fibrils, we see a prominent band at 14 kDa corresponding with protein monomer. […]
For all transmission electron microscopy (TEM), 6 μL of sample were added onto 400 mesh Formvar Carbon film copper mesh grids (Electron Microscopy Sciences), then incubated for four minutes. […] For quantitation of fibrils, […] TEM images were taken per experimental condition from random points throughout the grid. Fibril counts were manually quantified per image in a blinded fashion. […]

[2] = biological target: T2, MSA brain-derived alpha-synuclein fibrils (Homo sapiens, UniProt P37840); experiment: EM quantification of MSA brain-derived alpha-synuclein fibrils; assay type: biochemical; details: incubated for 3 days, compared to control
T2 construct: Extraction of sarkosyl-insoluble alpha-synuclein fibrils from neuropathologically confirmed brain samples of patients diagnosed with MSA; from tissue; host or cells: post-mortem MSA patient brain
Procedure: Post-mortem alpha-synuclein fibrils were extracted and purified from the brain of a patient with MSA. The presence of fibrils in the extract was confirmed by electron microscopy (FIG. 3a). […] As with the recombinant fibrils, we next aimed to quantitatively assess brain-derived fibril disaggregation by EM. Compounds were incubated with MSA fibrils for 3 days, and fibrils were quantified by EM daily, with 10-15 images taken per experimental replicate.
For all transmission electron microscopy (TEM), 6 μL of sample were added onto 400 mesh Formvar Carbon film copper mesh grids (Electron Microscopy Sciences), then incubated for four minutes. 6 μL of 2% uranyl acetate solution was then used to stain the grids. After 2 minutes, excess solution was blotted off and grids were left to dry for a minimum of 30 minutes. TEM images were taken on a Tecnai 12 transmission electron microscope. For quantitation of fibrils, n=20 TEM images were taken per experimental condition from random points throughout the grid. Fibril counts were manually quantified per image in a blinded fashion.
Compounds were incubated quiescently with fibril samples (both recombinant and brain-derived) for 72 hours at 37° C. […]

[3] = Brain penetration in mice (LC-MS/MRM of plasma and brain); assay type: in vivo, C57BL/6J mice; details: 0.5 mg/kg tail vein injection, 1 hour after dosing, range of n=3; for concentration at 1 h: C57BL/6J, mouse, plasma, intravenous
Procedure: The compounds were administered by tail vein injection at a dose of 0.5 mg/kg of body weight to C57BL/6J mice (n=3 for each compound). […] To detect and quantify the drugs we used a sensitive, selective, and specific liquid chromatographic/tandem mass spectrometric multiple reaction monitoring (LC-MS/MRM) assay. The sample extraction protocol for plasma and brain was optimized with spiking experiments in which the authentic compounds were added to plasma and brain from drug-naive mice. […] Blood was collected by cardiac puncture and plasma was recovered as the supernatant after centrifugation (3000×g, 10 m) and stored frozen. Brains were collected by standard dissection and immediately frozen. To measure the average drug concentrations across the entire brains each left hemisphere (average wet weight 250 mg) was processed. The samples were spiked with the internal standard (IS, CNS-11F, 15 pmol in 15 μL of acetonitrile) and homogenized with a probe sonicator (Kontes microsonic cell disrupter, 30 sec) after the addition of acetonitrile/water (4:1, v/v, 2500 μL). The homogenates were divided evenly into three polypropylene microcentrifuge tubes (met) for triplicate measurements of each sample. Following centrifugation (16,100g, 5 min), the supernatants were transferred to clean mets and dried in a vacuum centrifuge. The pellets were treated with acetonitrile (25 μL) with vigorous mixing, followed by water (25 μL) with more vigorous mixing, followed by more water (50 μL) for a total volume of 100 μL. The samples were mixed again, centrifuged (16,100g, 5 min) and the supernatants were transferred to HPLC injector vials. […] These samples were processed as described above. Plasma samples (50 μL, in duplicate for each mouse) were spiked with the internal standard (IS, CNS-11F, 5 pmol in 5 μL of acetonitrile), and vigorously mixed after the addition of acetonitrile (500 μL). Following centrifugation (16,100g, 5 min), the supernatants were transferred to clean mcts and dried in a vacuum centrifuge. […] The effluent from the column was directed to an electrospray ion source (Agilent Jet Stream) connected to a triple quadrupole mass spectrometer (Agilent 6460) operating in the positive ion tandem mass spectrometric multiple reaction monitoring (MRM) mode in which the intensity of the transition of preselected parent ions to preselected fragment ions was recorded after signal optimization (collision energy, fragmentor voltage and collision cell accelerator voltage) with instrument manufacturer-supplied software (Mass Hunter). […] Peak areas were integrated and recorded, and a curve was constructed from the data obtained from the standards in which the ratio of drug peak area/IS peak area was plotted against the amount of drug in each sample. […]

[4] = system: Neuro-2a (N2a) neuronal cells; experiment: MTT cell viability assay of N2a cells treated with alpha-synuclein fibrils; assay type: cell-based; details: final alpha-synuclein fibril concentration of 1 μM, various compound concentrations
Procedure: Alpha-synuclein aggregates, particularly oligomers, are known to be cytotoxic to neurons^4. Thus, we next determined if disaggregation of alpha-synuclein aggregates by our compounds mitigates their cytotoxicity. […] The fibril and compound mixtures were then added to cultured Neuro-2a (N2a) neuronal cells, to a final alpha-synuclein fibril concentration of 1 μM.
All experiments were performed in triplicate. […] Removal from the incubator and replacement of well media with 100 μL of 100% DMSO halted the assay. Absorbance was measured at 570 nm using a SpectraMax M5 reader. A background reading at 700 nm was subtracted from the 570 nm reading. Well readings were normalized to vehicle alone treated cells (designated as 100% viable) and cells treated with 100% DMSO (designated as 0% viable).

Structure (SMILES)	Function (α-synuclein fibrils)	number of imaged fibrils per EM image [1]	average number of imaged MSA fibrils [2]	concentration in brain tissue [3]	concentration at 1 h [3] [nM]	rescue of alpha-synuclein fibril cytotoxicity [4]
Cc1cccc(C)c1NC(=O)Cn1nc(Cc2ccccc2)c2ccccc2c1=O [CNS-11g, 2-(4-benzyl-1-oxophthalazin-2-yl)-N-(2,6-dimethylphenyl)acetamide]	Dissociate α- synuclein fibrils	reduction in number of imaged fibrils	reduction in average number of imaged fibrils	4.2-26.1 ng/g of brain	10.4 to 58.8	–
Cc1cc(C)c(NC(=O)Cn2nc3c4c(cccc4c2=O)-c2ccccc2-3)c(C)c1 [CNS-11, N-mesityl-2-(3-oxoindeno[1,2,3-de]phthalazin-2(3H)-yl)acetamide]	–	reduction in number of imaged fibrils	reduction in average number of imaged fibrils	6.9-21.5 ng/g of brain	5 to 28.4	no rescue of toxicity at any concentration; also recorded: unable to rescue
